No end group written: not given here.
How the values were obtained:
DQB1*05:01 = conditions: competition binding to purified MHC
DQB1*04:02 = conditions: competition binding to purified MHC
PBMC = test: IFNγ and IL-5 dual ELISPOT after 14 days culture; assay type: cell-based, human
[1] = biological target: purified HLA A*11:01 molecules (Homo sapiens, UniProt P04439, A114D/D185E/E176A/F33Y/L180Q/S129P/T187R); test: HLA class I competition binding assay; conditions: for binding, in words: purified HLA A*11:01 in vitro
[2] = test system: 26 common HLA class II alleles; test: HLA class II competition binding, panel of common alleles; design: species or system human

DNEAYEMPSEEGYQD
binding, in words (DQB1*05:01): strongly bound

EMPSEEGYQDYEPEA
binding, in words (DQB1*05:01): low affinity
binding, in words (DQB1*04:02): low affinity

GKTKEGVLYVGSKTK
T cell response, in words (PBMC; PBMC stimulated 14 days, peptides 5 μg/ml): apparent Class II restricted IL-5 and IFNγ response

GVLYVGSKTK
binding, in words [1]: bound poorly

MPVDPDNEAYEMPSE
binding, in words [2]: bound several alleles with lower affinity

VLYVGSKTK
IC50 [1]: 0.161 µM

VLYVGSKTKK
binding, in words [1]: bound poorly

phosphorylated aaS129 aa116MPVDPDNEAYEMPSEaa130: phosphorylated aaS129 epitope
IL-5 responses in PD compared with HC (PBMC; p=0.02, Fisher's exact test, 300 SFC threshold): markedly higher

Source: paper PMC5626019 (Nature, 2017)
